Test results from PubChem BioAssay AID328 (DTP/NCI, 2004).
Values joined by “and” are separate entries in the source; they are usually repeats but may differ in a detail not shown here. Equal entries are not always repeated. Toxic doses and inconclusive results are not listed.

Test system: BDF1 mice, P388 leukemia ip, median survival T/C
Assay: NCI In Vivo Anticancer Drug Screen. Data for tumor model P388 Leukemia (intraperitoneal) in B6D2F1 (BDF1) mice
Conditions: endpoint: median survival time, higher = longer survival
Summary of the method: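 Reported as T/C, where T is the survival measurement in dosed animals and C the same measurement in vehicle controls.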

[1] = dose: 100.0 mg/kg/injection, schedule: Q04DX003 (ip), vehicle: saline
[2] = dose: 150.0 mg/kg/injection, schedule: Q04DX003 (ip), vehicle: saline
[3] = dose: 50.0 mg/kg/injection, schedule: Q01DX009 (ip), vehicle: saline with Tween-80
[4] = dose: 50.0 mg/kg/injection, schedule: Q04DX003 (ip), vehicle: saline with Tween-80
[5] = dose: 100.0 mg/kg/injection, schedule: Q01DX009 (ip), vehicle: saline with Tween-80
[6] = dose: 100.0 mg/kg/injection, schedule: Q04DX003 (ip), vehicle: saline with Tween-80
[7] = dose: 50.0 mg/kg/injection, schedule: Q04DX003 (ip), vehicle: Klucel (hydroxypropylcellulose) (HPC)
[8] = dose: 100.0 mg/kg/injection, schedule: Q04DX003 (ip), vehicle: Klucel (hydroxypropylcellulose) (HPC)
[9] = dose: 200.0 mg/kg/injection, schedule: Q04DX003 (ip), vehicle: Klucel (hydroxypropylcellulose) (HPC)
[10] = dose: 200.0 mg/kg/injection, schedule: Q04DX003 (ip), vehicle: saline with Tween-80
[11] = dose: 50.0 mg/kg/injection, schedule: Q01DX009 (ip), vehicle: saline
[12] = dose: 100.0 mg/kg/injection, schedule: Q01DX009 (ip), vehicle: saline

For `O=C(CNC(=O)c1ccc(C(=O)NCC(=O)Nc2ccc(C3=NCCCN3)cc2)cc1)Nc1ccc(C2=NCCCN2)cc1`, the T/C (dose: 11.0 mg/kg/injection, schedule: Q04DX003 (ip), vehicle: saline) was 100 % of control, the T/C (dose: 16.0 mg/kg/injection, schedule: Q04DX003 (ip), vehicle: saline) was 113 % of control and the T/C (dose: 25.0 mg/kg/injection, schedule: Q01DX001 (ip), vehicle: Klucel (hydroxypropylcellulose) (HPC)) was 96 % of control. The T/C (dose: 50.0 mg/kg/injection, schedule: Q01DX001 (ip), vehicle: Klucel (hydroxypropylcellulose) (HPC)) was 103 % of control, the T/C (dose: 66.0 mg/kg/injection, schedule: Q04DX003 (ip), vehicle: saline) was 168 % of control and the T/C (dose: 75.0 mg/kg/injection, schedule: Q01DX001 (ip), vehicle: Klucel (hydroxypropylcellulose) (HPC)) was 107 % of control. For the same compound, the T/C (dose: 100.0 mg/kg/injection, schedule: Q01DX001 (ip), vehicle: Klucel (hydroxypropylcellulose) (HPC)) was 115 % of control, the T/C [1] was 181 % of control (2×) and 195 % of control and the T/C [2] was 272 % of control and 186 % of control. For the same compound, the T/C (dose: 400.0 mg/kg/injection, schedule: Q01DX001 (ip), vehicle: Klucel (hydroxypropylcellulose) (HPC)) was 168 % of control.

For `CCCNC(=O)NO`, the T/C (dose: 100.0 mg/kg/injection, schedule: Q01DX009 (ip), vehicle: Klucel (hydroxypropylcellulose) (HPC)) was 119 % of control, the T/C (dose: 100.0 mg/kg/injection, schedule: Q04DX003 (ip), vehicle: other) was 87 % of control and the T/C (dose: 200.0 mg/kg/injection, schedule: Q01DX009 (ip), vehicle: Klucel (hydroxypropylcellulose) (HPC)) was 104 % of control. For the same compound, the T/C (dose: 200.0 mg/kg/injection, schedule: Q04DX003 (ip), vehicle: other) was 104 % of control, the T/C (dose: 400.0 mg/kg/injection, schedule: Q01DX009 (ip), vehicle: Klucel (hydroxypropylcellulose) (HPC)) was 114 % of control and the T/C (dose: 400.0 mg/kg/injection, schedule: Q04DX003 (ip), vehicle: other) was 104 % of control.

With `COC(=O)C1=C(C)NC(=O)NC1c1ccccc1` (centres undefined) the T/C (dose: 100.0 mg/kg/injection, schedule: Q01DX001 (ip), vehicle: saline with Tween-80) was 100 % of control, the T/C (dose: 200.0 mg/kg/injection, schedule: Q01DX001 (ip), vehicle: saline with Tween-80) was 100 % of control and the T/C (dose: 400.0 mg/kg/injection, schedule: Q01DX001 (ip), vehicle: saline with Tween-80) was 100 % of control.

In the case of `NC(=O)C1(c2ccccc2)CCN(Cc2ccccc2)CC1`, the T/C [3] is reported as 96 % of control, the T/C [4] is reported as 100 % of control and the T/C [5] is reported as 111 % of control. The T/C [6] was 90 % of control.

In the case of `Nc1nc(=S)c2[nH]c(N=Nc3ccc(S(=O)(=O)Nc4ccccn4)cc3)nc2[nH]1`, the T/C (dose: 12.5 mg/kg/injection, schedule: Q01DX009 (ip), vehicle: Klucel (hydroxypropylcellulose) (HPC)) is reported as 108 % of control, the T/C (dose: 25.0 mg/kg/injection, schedule: Q01DX009 (ip), vehicle: Klucel (hydroxypropylcellulose) (HPC)) is reported as 91 % of control and the T/C (dose: 50.0 mg/kg/injection, schedule: Q01DX009 (ip), vehicle: Klucel (hydroxypropylcellulose) (HPC)) is reported as 90 % of control. For the same compound, the T/C [7] was 87 % of control, the T/C [8] was 116 % of control and the T/C [9] was 104 % of control.

In the case of `O=C(COc1ccccc1[N+](=O)[O-])Nc1cccnc1`, the T/C [6] is reported as 100 % of control, the T/C [10] is reported as 95 % of control and the T/C (dose: 400.0 mg/kg/injection, schedule: Q04DX003 (ip), vehicle: saline with Tween-80) is reported as 100 % of control.

For `O=C(O)CC[n+]1c(/C=C/c2cc(Br)c(O)c(Br)c2)sc2ccccc21`, the T/C (dose: 50.0 mg/kg/injection, schedule: Q04DX003 (ip), vehicle: saline sonified) was 100 % of control, the T/C (dose: 100.0 mg/kg/injection, schedule: Q04DX003 (ip), vehicle: saline sonified) was 100 % of control and the T/C (dose: 200.0 mg/kg/injection, schedule: Q04DX003 (ip), vehicle: saline sonified) was 100 % of control.

For `CC(=O)c1cc(C)ccc1Sc1ccc(C)cc1`, the T/C [3] was 104 % of control, the T/C [5] was 101 % of control and the T/C (dose: 200.0 mg/kg/injection, schedule: Q01DX009 (ip), vehicle: saline with Tween-80) was 95 % of control.

For `Cc1cc2c(cc1C)C(O)C(N1CCN(C)CC1)CCC2` (centres undefined), the T/C [4] was 109 % of control, the T/C [6] was 100 % of control and the T/C [10] was 100 % of control.

In the case of `COc1cccc2c1C(=O)c1c(O)c3c(c(O)c1C2=O)C[C@@](O)(C(C)=O)C[C@@H]3OC1CC(NC(=O)c2ccncc2)C(O)C(C)O1` (some centres undefined), the T/C (dose: 3.13 mg/kg/injection, schedule: Q01DX009 (ip), vehicle: water) is reported as 150 % of control, the T/C (dose: 6.25 mg/kg/injection, schedule: Q01DX009 (ip), vehicle: water) is reported as 154 % of control and the T/C (dose: 12.5 mg/kg/injection, schedule: Q01DX009 (ip), vehicle: water) is reported as 159 % of control.

`CCCCCCCCCCCCNC(=O)CC(O)(CC(=O)O)C(=O)O` (centres undefined) was tested, and the T/C (dose: 25.0 mg/kg/injection, schedule: Q04DX003 (ip), vehicle: Klucel (hydroxypropylcellulose) (HPC)) was 111 % of control, the T/C [7] was 88 % of control and the T/C [8] was 92 % of control.

For `O=c1[nH]cnc2c1nc1n2CCC1`, the T/C [4] was 90 % of control, the T/C [6] was 90 % of control and the T/C [10] was 113 % of control.

With `CC1(c2cccs2)C(=O)N(Cl)C(=O)N1Cl` (centres undefined) the T/C (dose: 12.5 mg/kg/injection, schedule: Q04DX003 (ip), vehicle: saline) was 100 % of control, the T/C (dose: 25.0 mg/kg/injection, schedule: Q04DX003 (ip), vehicle: saline) was 100 % of control and the T/C [11] was 122 % of control. The T/C (dose: 50.0 mg/kg/injection, schedule: Q04DX003 (ip), vehicle: saline) was 118 % of control, the T/C [12] was 119 % of control and the T/C [1] was 107 % of control and 109 % of control and 118 % of control. For the same compound, the T/C (dose: 200.0 mg/kg/injection, schedule: Q01DX009 (ip), vehicle: saline) was 120 % of control and the T/C (dose: 200.0 mg/kg/injection, schedule: Q04DX003 (ip), vehicle: saline) was 118 % of control.

`CN=C(NN(C)C)c1ccc(NC(=O)c2ccc(C(=O)Nc3ccc(C(=NC)NN(C)C)cc3)cc2)cc1` was tested, and the T/C (dose: 4.0 mg/kg/injection, schedule: Q01DX009 (ip), vehicle: saline with Tween-80) was 100 % of control and the T/C (dose: 9.0 mg/kg/injection, schedule: Q01DX009 (ip), vehicle: saline with Tween-80) was 150 % of control.

In the case of `COc1cc2c(cc1O)CCCCC2=O`, the T/C (dose: 25.0 mg/kg/injection, schedule: Q01DX009 (ip), vehicle: saline with Tween-80) is reported as 109 % of control, the T/C [3] is reported as 104 % of control and the T/C [5] is reported as 104 % of control. The T/C [8] was 110 % of control, the T/C [9] was 95 % of control and the T/C (dose: 400.0 mg/kg/injection, schedule: Q04DX003 (ip), vehicle: Klucel (hydroxypropylcellulose) (HPC)) was 90 % of control.

`O=C1OC2CCC3C1C3C2Br` (centres undefined) was tested, and the T/C (dose: 2.32 mg/kg/injection, schedule: Q04DX003 (ip), vehicle: Klucel (hydroxypropylcellulose) (HPC)) was 95 % of control, the T/C (dose: 4.65 mg/kg/injection, schedule: Q04DX003 (ip), vehicle: Klucel (hydroxypropylcellulose) (HPC)) was 95 % of control and the T/C (dose: 9.3 mg/kg/injection, schedule: Q04DX003 (ip), vehicle: Klucel (hydroxypropylcellulose) (HPC)) was 95 % of control. For the same compound, the T/C (dose: 13.0 mg/kg/injection, schedule: Q04DX003 (ip), vehicle: Klucel (hydroxypropylcellulose) (HPC)) was 115 % of control, the T/C (dose: 21.0 mg/kg/injection, schedule: Q04DX003 (ip), vehicle: Klucel (hydroxypropylcellulose) (HPC)) was 115 % of control and the T/C (dose: 30.0 mg/kg/injection, schedule: Q04DX003 (ip), vehicle: Klucel (hydroxypropylcellulose) (HPC)) was 120 % of control. The T/C (dose: 45.0 mg/kg/injection, schedule: Q04DX003 (ip), vehicle: Klucel (hydroxypropylcellulose) (HPC)) was 109 % of control and the T/C (dose: 70.0 mg/kg/injection, schedule: Q04DX003 (ip), vehicle: Klucel (hydroxypropylcellulose) (HPC)) was 95 % of control.

In the case of `NS(=O)(=O)c1ccc(Cl)cc1`, the T/C (dose: 25.0 mg/kg/injection, schedule: Q01DX009 (ip), vehicle: saline) is reported as 113 % of control, the T/C [11] is reported as 109 % of control and the T/C (dose: 75.0 mg/kg/injection, schedule: Q04DX003 (ip), vehicle: saline) is reported as 100 % of control. The T/C [12] was 86 % of control, the T/C [2] was 109 % of control and the T/C (dose: 300.0 mg/kg/injection, schedule: Q04DX003 (ip), vehicle: saline) was 109 % of control.

With `c1ccc(Oc2c3ccccc3nc3ccccc23)cc1` the T/C (dose: 50.0 mg/kg/injection, schedule: Q01DX005 (ip), vehicle: saline with Tween-80) was 123 % of control.

With `CCC(=O)OCc1c(C)nc2sccn12` the T/C (dose: 25.0 mg/kg/injection, schedule: Q01DX001 (ip), vehicle: saline) was 96 % of control, the T/C (dose: 50.0 mg/kg/injection, schedule: Q01DX001 (ip), vehicle: saline) was 102 % of control and the T/C (dose: 100.0 mg/kg/injection, schedule: Q01DX001 (ip), vehicle: saline) was 105 % of control.
